Measurements taken from patent publication US9340544B2, “Purinyl derivatives and their use as potassium channel modulators” (NeuroSearch A/S, priority 2007, dated 2016).

Target: T1, hSK3 channels (Homo sapiens, UniProt Q9UGI6)
T1 construct: expressed in transfected cells; host or cells: HEK293
Assay: Whole-cell patch-clamp recording of ionic current through SK channels (subtype 3) in HEK293 cells expressing hSK3
Assay type: cell-based
Details: SK3 activation
Procedure: The ionic current through small-conductance Ca^2+-activated K^+ channels (SK channels, subtype 3) is recorded using the whole-cell configuration of the patch-clamp technique in a classic patch-clamp set-up using HEK293 tissue culture cells expressing hSK3 channels as described in e.g. WO 2006/100212.
The SC100 value determined is defined as the Stimulating Concentration required for increasing the baseline current by 100%.

How did the “The SC100 (Stimulating Concentration required for increasing the baseline current by 100%)” value turn out when `CCn1cnc2c(Nc3ccc(Cl)cc3)nc(-n3nc(C)cc3C)nc21` [Compound 6.4, (4-Chloro-phenyl)-[2-(3,5-dimethyl-pyrazol-1-yl)-9-ethyl-9H-purin-6-yl]-amine] was run?
Its value is 0.01 µM.

For `Cc1cc(C)n(-c2nc(Nc3ccc(F)cc3)c3ncn(C)c3n2)n1` [Compound 9.1, [2-(3,5-Dimethyl-pyrazol-1-yl)-9-methyl-9H-purin-6-yl]-(4-fluoro-phenyl)-amine], which “The SC100 (Stimulating Concentration required for increasing the baseline current by 100%)” value is on record?
Its value is 0.05 µM.

With `Cc1cc(C)n(-c2nc(Nc3ccc(Cl)nc3)c3ncn(C)c3n2)n1` [Compound 9.7, (6-Chloro-pyridin-3-yl)-[2-(3,5-dimethyl-pyrazol-1-yl)-9-methyl-9H-purin-6-yl]-amine] as the compound, how does the “The SC100 (Stimulating Concentration required for increasing the baseline current by 100%)” value read?
Its value is 0.4 µM.

Which “The SC100 (Stimulating Concentration required for increasing the baseline current by 100%)” value does the source give for `Cc1cc(C)n(-c2nc(Nc3ccc([N+](=O)[O-])cc3)c3ncn(C)c3n2)n1` [Compound 9.8, [2-(3,5-Dimethyl-pyrazol-1-yl)-9-methyl-9H-purin-6-yl]-(4-nitro-phenyl)-amine] here?
Its value is 0.2 µM.

`Cc1cc(C)n(-c2nc(NCCc3ccccc3)c3ncn(C)c3n2)n1` [Compound 9.11, [2-(3,5-Dimethyl-pyrazol-1-yl)-9-methyl-9H-purin-6-yl]-phenethyl-amine] was tested. Which “The SC100 (Stimulating Concentration required for increasing the baseline current by 100%)” value did it give?
Its value is 0.2 µM.

Which “The SC100 (Stimulating Concentration required for increasing the baseline current by 100%)” value does the source give for `CCc1cc(CC)n(-c2nc(Nc3ccc(Cl)cc3)c3ncn(C)c3n2)n1` [Compound 9.14, (4-Chloro-phenyl)-[2-(3,5-diethyl-pyrazol-1-yl)-9-methyl-9H-purin-6-yl]-amine] here?
The value was 0.6 µM.

`Cc1nn(-c2nc(Nc3ccc(Cl)cc3)c3ncn(C)c3n2)c(C)c1Cl` [Compound 9.16, [2-(4-Chloro-3,5-dimethyl-pyrazol-1-yl)-9-methyl-9H-purin-6-yl]-(4-chloro-phenyl)-amine] was tested. Which “The SC100 (Stimulating Concentration required for increasing the baseline current by 100%)” value did it give?
Its value is 0.02 µM.

How did the “The SC100 (Stimulating Concentration required for increasing the baseline current by 100%)” value turn out when `Cc1cc(-c2ccco2)nn1-c1nc(Nc2ccc(Cl)cc2)c2ncn(C)c2n1` [Compound 9.18, (4-Chloro-phenyl)-[2-(3-furan-2-yl-5-methyl-pyrazol-1-yl)-9-methyl-9H-purin-6-yl]-amine] was run?
Its value is 1.0 µM.

With `Cc1cc(CO)n(-c2nc(Nc3ccc(Cl)cc3)c3ncn(C)c3n2)n1` [Compound 13.1, {2-[6-(4-Chloro-phenylamino)-9-methyl-9H-purin-2-yl]-5-methyl-2H-pyrazol-3-yl}-methanol] as the compound, how does the “The SC100 (Stimulating Concentration required for increasing the baseline current by 100%)” value read?
Its value is 0.2 µM.

For `Cc1cc(C)n(-c2nc(Nc3ccccc3)c3nc[nH]c3n2)n1` [Compound 14.1, [2-(3,5-Dimethyl-pyrazol-1-yl)-9H-purin-6-yl]-phenyl-amine], which “The SC100 (Stimulating Concentration required for increasing the baseline current by 100%)” value is on record?
Its value is 0.2 µM.

Which “The SC100 (Stimulating Concentration required for increasing the baseline current by 100%)” value does the source give for `COCCn1cnc2c(Nc3ccccc3)nc(-n3nc(C)cc3C)nc21` [Compound 15.1, [2-(3,5-Dimethyl-pyrazol-1-yl)-9-(2-methoxy-ethyl)-9H-purin-6-yl-]phenyl-amine] here?
The value was 0.4 µM.
